System: 186277-243-T-J2-PDC complex spheroids, viability
Assay: Anticancer human tumor 186277-243-T-J2-PDC patient-derived colon adenocarcinoma cell line growth inhibition [RAS]
Conditions: for viability, T/C: stronger effect = lower value; active = viability on the fitted dose curve at most 10% of control; inactive = the rest
Method in brief: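 Agents were tested in combination matrices in half-log decrements from a top concentration at or near clinical Cmax (10 microM if undetermined). Targets were multi-cell spheroids of tumour lines plus HUVEC and MSC stromal cells.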
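Note: spheroids exposed to compounds for 7 days before viability read.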

CC(Nc1ccc2c(c1)OCCn1cc(N3C(=O)OCC3C(F)F)nc1-2)C(N)=O (stereo unspecified) + C=CC(=O)N1CCN(c2nc(OCC3CCCN3C)nc3c(F)c(-c4nc(N)cc(C)c4C(F)(F)F)c(Cl)cc23)C(C)C1
344 nM: IC50 (curve of first compound, second compound 1 µM)
1020 nM: IC50 (curve of first compound, second compound 0.1 µM)
509 nM: IC50 (curve of first compound, second compound 0.00316 µM)
460 nM: IC50 (curve of first compound, second compound 0.01 µM)
inactive: viability, T/C (second compound 0.00316 µM, first compound 0.0316 µM) 109% | viability, T/C (second compound 0.00316 µM, first compound 0.1 µM) 108% | viability, T/C (second compound 0.00316 µM, first compound 0.316 µM) 58.9% | viability, T/C (second compound 0.00316 µM, first compound 1 µM) 40.8% | viability, T/C (second compound 0.00316 µM, first compound 3.16 µM) 34.7% | viability, T/C (second compound 0.00316 µM, first compound 10 µM) 35% | viability, T/C (second compound 0.01 µM, first compound 0.0316 µM) 102% | viability, T/C (second compound 0.01 µM, first compound 0.1 µM) 109% | viability, T/C (second compound 0.01 µM, first compound 0.316 µM) 57.3% | viability, T/C (second compound 0.01 µM, first compound 1 µM) 42% | viability, T/C (second compound 0.01 µM, first compound 3.16 µM) 36.7% | viability, T/C (second compound 0.01 µM, first compound 10 µM) 25.3% | viability, T/C (second compound 0.0316 µM, first compound 0.0316 µM) 90.2% | viability, T/C (second compound 0.0316 µM, first compound 0.1 µM) 105% | viability, T/C (second compound 0.0316 µM, first compound 0.316 µM) 70.3% | viability, T/C (second compound 0.0316 µM, first compound 1 µM) 47.1% | viability, T/C (second compound 0.0316 µM, first compound 3.16 µM) 37.4% | viability, T/C (second compound 0.0316 µM, first compound 10 µM) 33.5% | viability, T/C (second compound 0.1 µM, first compound 0.0316 µM) 82.8% | viability, T/C (second compound 0.1 µM, first compound 0.1 µM) 99.9% | viability, T/C (second compound 0.1 µM, first compound 0.316 µM) 72.8% | viability, T/C (second compound 0.1 µM, first compound 1 µM) 50.5% | viability, T/C (second compound 0.1 µM, first compound 3.16 µM) 42.8% | viability, T/C (second compound 0.1 µM, first compound 10 µM) 31.2% | viability, T/C (second compound 0.316 µM, first compound 0.0316 µM) 105% | viability, T/C (second compound 0.316 µM, first compound 0.1 µM) 103% | viability, T/C (second compound 0.316 µM, first compound 0.316 µM) 55.3% | viability, T/C (second compound 0.316 µM, first compound 1 µM) 42.5% | viability, T/C (second compound 0.316 µM, first compound 3.16 µM) 36.1% | viability, T/C (second compound 0.316 µM, first compound 10 µM) 33.7% | viability, T/C (second compound 1 µM, first compound 0.0316 µM) 93.3% | viability, T/C (second compound 1 µM, first compound 0.1 µM) 98.5% | viability, T/C (second compound 1 µM, first compound 0.316 µM) 51% | viability, T/C (second compound 1 µM, first compound 1 µM) 44.1% | viability, T/C (second compound 1 µM, first compound 3.16 µM) 41.5% | viability, T/C (second compound 1 µM, first compound 10 µM) 28.3%
453 nM: IC50 (curve of first compound, second compound 0.316 µM)
771 nM: IC50 (curve of first compound, second compound 0.0316 µM)

O=C(c1ccc(F)c(F)c1Nc1ccc(I)cc1F)N1CC(O)([C@@H]2CCCCN2)C1
inactive: viability, T/C (compound 0.00316 µM) 102% [middle of 4 runs] | viability, T/C (compound 0.01 µM) 93.3% [middle of 4 runs] | viability, T/C (compound 0.0316 µM) 94.1% [middle of 4 runs] | viability, T/C (compound 0.1 µM) 39.6% [middle of 4 runs]
active: viability, T/C (compound 1 µM) 5.17% [middle of 4 runs]
9.71% [middle of 4 runs]: viability, T/C (compound 0.316 µM)
79.7 nM [middle of 4 runs]: IC50 (curve of compound)

CC1(O)CCCC1n1c(=O)c(C(F)F)cc2cnc(NC3CCN(S(C)(=O)=O)CC3)nc21 (stereo unspecified) + CCn1c(-c2cccnc2C(C)OC)c2c3cc(ccc31)N1CCOC(CC(NC(=O)C(C(C)C)N(C)C(=O)C3(F)CCN(C(=O)C#CC(C)(C)N(C)C)CC3)C(=O)N3CCCC(N3)C(=O)OCC(C)(C)C2)C1
3590 nM: IC50 (curve of first compound, second compound 0.0949 µM)
4480 nM: IC50 (curve of first compound, second compound 0.003 µM)
inactive: viability, T/C (second compound 0.000949 µM, first compound 0.0316 µM) 129% | viability, T/C (second compound 0.000949 µM, first compound 0.1 µM) 113% | viability, T/C (second compound 0.000949 µM, first compound 0.316 µM) 122% | viability, T/C (second compound 0.000949 µM, first compound 1 µM) 86.7% | viability, T/C (second compound 0.000949 µM, first compound 3.16 µM) 74.8% | viability, T/C (second compound 0.003 µM, first compound 0.0316 µM) 96.5% | viability, T/C (second compound 0.003 µM, first compound 0.1 µM) 122% | viability, T/C (second compound 0.003 µM, first compound 0.316 µM) 104% | viability, T/C (second compound 0.003 µM, first compound 1 µM) 93.2% | viability, T/C (second compound 0.003 µM, first compound 3.16 µM) 71.7% | viability, T/C (second compound 0.00949 µM, first compound 0.0316 µM) 116% | viability, T/C (second compound 0.00949 µM, first compound 0.1 µM) 116% | viability, T/C (second compound 0.00949 µM, first compound 0.316 µM) 115% | viability, T/C (second compound 0.00949 µM, first compound 1 µM) 84.3% | viability, T/C (second compound 0.00949 µM, first compound 3.16 µM) 75.7% | viability, T/C (second compound 0.03 µM, first compound 0.0316 µM) 111% | viability, T/C (second compound 0.03 µM, first compound 0.1 µM) 117% | viability, T/C (second compound 0.03 µM, first compound 0.316 µM) 108% | viability, T/C (second compound 0.03 µM, first compound 1 µM) 80.3% | viability, T/C (second compound 0.03 µM, first compound 3.16 µM) 77.2% | viability, T/C (second compound 0.0949 µM, first compound 0.0316 µM) 108% | viability, T/C (second compound 0.0949 µM, first compound 0.1 µM) 113% | viability, T/C (second compound 0.0949 µM, first compound 0.316 µM) 80.9% | viability, T/C (second compound 0.0949 µM, first compound 1 µM) 73.3% | viability, T/C (second compound 0.0949 µM, first compound 3.16 µM) 69% | viability, T/C (second compound 0.3 µM, first compound 0.0316 µM) 114% | viability, T/C (second compound 0.3 µM, first compound 0.1 µM) 91.7% | viability, T/C (second compound 0.3 µM, first compound 0.316 µM) 56.2% | viability, T/C (second compound 0.3 µM, first compound 1 µM) 56.8% | viability, T/C (second compound 0.3 µM, first compound 3.16 µM) 53.8% | viability, T/C (second compound 0.3 µM, first compound 10 µM) 0.94%
4380 nM: IC50 (curve of first compound, second compound 0.00949 µM)
active: viability, T/C (second compound 0.000949 µM, first compound 10 µM) 1.88% | viability, T/C (second compound 0.003 µM, first compound 10 µM) 2.18% | viability, T/C (second compound 0.00949 µM, first compound 10 µM) 2.28% | viability, T/C (second compound 0.03 µM, first compound 10 µM) 1.84% | viability, T/C (second compound 0.0949 µM, first compound 10 µM) 1.68%
4330 nM: IC50 (curve of first compound, second compound 0.000949 µM)
4350 nM: IC50 (curve of first compound, second compound 0.03 µM)
1170 nM: IC50 (curve of first compound, second compound 0.3 µM)

From PubChem BioAssay AID2060908 (Molecular Pharmacology Branch, DTP, NCI, 2025)
